The values that follow come from US12123028B2, “Viral inactivation methods for continuous manufacturing of antibodies” (Bayer HealthCare LLC, priority 2018, dated 2024).

Experiment [1] deals with X-MuLV. The experiment is described as follows: Dual X-MuLV inactivation by low pH and detergent in mAb protein A eluate, remaining infectivity by TCID50 assay on PG-4 cells. The note with it: for required inactivation time compared with 0.2% Tween 80 / time required for X-MuLV inactivation: 16° C.; for treatment time to completely inactivate X-MuLV: 18° C. It is filed as cell-based, Xenotropic Murine Leukemia Virus. The protocol: […] The pH adjusted eluates were then filtered by a 0.22 um filter. Various volumes of 5% detergent stock solution were then added to the filtered protein A eluates. The low pH protein A eluates containing Mega-10, Tween 80 or Tween 20 were pre-incubated at a 16° C. water bath prior to spiking with X-MuLV at a 1:20 ratio. After a thorough mixing, an aliquot of sample was removed immediately and neutralized with 1 M Tris buffer to stop low pH viral inactivation, then immediately quenched with diluent at 1:12 for Mega-10 or at 1:100 for Tween 20 and Tween 80 to stop viral inactivation by the detergent. The collected sample was designated as a time-zero reference. The remaining spiked eluate was returned to the water bath and the samples were collected at indicated times to evaluate the viral inactivation kinetics. The remaining X-MuLV infectivity in the samples post-inactivation treatment was determined by a TCID50 assay that is an endpoint dilution assay to quantify the amount of virus required to produce a cytopathic effect in 50% of inoculated tissue culture cells. Virus titers were estimated using the Spearman-Karber method and reported as TCID50/mL with a calculated 95% confidence interval (CI). Briefly, a sufficient number of 96-well plates with PG-4 (feline S^+L^−, ATCC#CRL-2032) cells were prepared the day before starting the viral inactivation experiments and incubated overnight in a 37° C. humidified CO2 incubator. A set of ten 3.2 fold dilution of the diluted positive control (1:100) and viral inactivated samples were prepared in a dilution block. Each set of the 11 serial dilutions of the samples were inoculated correspondingly onto wells (100 μL per well) of the first 11 columns in a 96-well plate that had been pre-seeded with PG-4 cells. The 12th column in the same plate was inoculated with the corresponding diluent to serve as non-virus negative control. The positive control was prepared by spiking the filtered neutralized protein A eluate with X-MuLV at a 1:20 ratio. The inoculated plates were then incubated in a 37° C. humidified CO2 incubator for approximate 2 hours. A volume of 100 uL of 2× assay medium (92% McCoy's 5A medium, 4% FBS, 2% Penicillin/Streptomycin, 2% L-Glutamine) was added to each well of the plates at the end of incubation. The plates were then returned to the same incubator, and continued incubation for 6 days. Each well of the plates were scored under a microscope for the presence of cytopathic effect (CPE) and the results were recorded in a scoring sheet. Virus titers were then estimated using the Spearman-Karber method and reported as TCID50/mL with a calculated 95% confidence interval (CI).

The subject of experiment [2] is retroviruses. The conditions noted are these: Triton X-100 ≥0.5%; hold time ≥60 minutes; 15-25° C.; pH 6.0-8.0; clarified, cell-free intermediate of mAb or IgG Fc fusion protein; cited from earlier work.

Consider `CCCCCCCC/C=C\CCCCCCCC(=O)OCCOCC(OCCO)C1OCC(OCCO)C1OCCO` (stereo not shown) [Tween 80], for which the “time needed for inactivating X-MuLV to the level below the detection limit” value in experiment [1] (dual treatment: mAb2 protein A eluate pH 4.05 with 0.5% Tween 80, 16° C. (120 minutes by pH 4.0 alone at 18° C.)) was determined as 10 min. In addition, in experiment [1] (dual treatment: mAb3 (IgG2) protein A eluate pH 3.97 with 0.5% Tween 80, 16° C. (120 minutes by low pH alone)), the “incubation time needed for inactivation of X-MuLV to the level below the detection limit” value is 5 min. In experiment [1] (dual treatment: mAb3 protein A eluate pH 3.99 with 0.2% Tween 80, 16° C. (120 minutes without detergent)), this molecule came in with a required inactivation time of 5 min. The “required inactivation time compared with 0.2% Tween 80” value in experiment [1] (dual treatment: mAb3 protein A eluate pH 3.99 with 0.3% Tween 80) and in experiment [1] (dual treatment: mAb3 protein A eluate pH 3.99 with 0.5% Tween 80) was “no further reducing of time” throughout. Further, the “time required for X-MuLV inactivation” value in experiment [1] (mAb3 protein A eluate containing 0.1% Tween 80 at pH 3.7) was 0 min; in experiment [1] (mAb3 protein A eluate containing 0.1% Tween 80 at pH 3.8), 1 min; in experiment [1] (mAb3 protein A eluate containing 0.1% Tween 80 at pH 3.9) it was 2.5 min; in experiment [1] (mAb3 protein A eluate containing 0.1% Tween 80 at pH 4.0), 10 min. Further, the “treatment time to completely inactivate X-MuLV” value in experiment [1] (mAb4 protein A eluate at pH 4.11 containing 1% Tween 80) was 1 h; in experiment [1] (mAb4 protein A eluate at pH 4.20 containing 1% Tween 80) it was 3 h; in experiment [1] (mAb4 protein A eluate at pH 4.30 containing 1% Tween 80), 4 h.
With Triton X-100, the “LRF of retroviral inactivation” value in experiment [2] is on record as at least 4.0.
